Data: the NIST ThermoML archive (doi:10.1016/j.jct.2012.03.003)

Assay: xn = mol fraction of the nth substance listed
Conditions: Liquid, Vibrating tube method

COc1cc2c(cc1O)CC1c3c(cc(O)c(OC)c3-2)CCN1C (stereo not given) [boldine] + CCCO
Conditions | mass density [kg/m3]
313.09 K, 1000 kPa, x1 = 0.0142 | 812.51
313.09 K, 2000 kPa, x1 = 0.0142 | 813.26
313.09 K, 3000 kPa, x1 = 0.0142 | 814.02
313.09 K, 4000 kPa, x1 = 0.0142 | 814.8
313.09 K, 5000 kPa, x1 = 0.0142 | 815.58
313.09 K, 6000 kPa, x1 = 0.0142 | 816.36
313.09 K, 7000 kPa, x1 = 0.0142 | 817.15
313.09 K, 8000 kPa, x1 = 0.0142 | 817.95
313.09 K, 9000 kPa, x1 = 0.0142 | 818.75
313.09 K, 10000 kPa, x1 = 0.0142 | 819.54
313.09 K, 11000 kPa, x1 = 0.0142 | 820.32
313.09 K, 12000 kPa, x1 = 0.0142 | 821.12
313.09 K, 13000 kPa, x1 = 0.0142 | 821.89
313.09 K, 14000 kPa, x1 = 0.0142 | 822.65
313.09 K, 15000 kPa, x1 = 0.0142 | 823.42
313.09 K, 16000 kPa, x1 = 0.0142 | 824.16
313.09 K, 17000 kPa, x1 = 0.0142 | 824.91
313.09 K, 18000 kPa, x1 = 0.0142 | 825.63
313.09 K, 19000 kPa, x1 = 0.0142 | 826.34
313.09 K, 20000 kPa, x1 = 0.0142 | 827.03
313.14 K, 1000 kPa, x1 = 0.0046 | 797.2
313.14 K, 2000 kPa, x1 = 0.0046 | 797.97
313.14 K, 3000 kPa, x1 = 0.0046 | 798.75
313.14 K, 4000 kPa, x1 = 0.0046 | 799.53
313.14 K, 5000 kPa, x1 = 0.0046 | 800.32
313.14 K, 6000 kPa, x1 = 0.0046 | 801.13
313.14 K, 7000 kPa, x1 = 0.0046 | 801.93
313.14 K, 8000 kPa, x1 = 0.0046 | 802.74
313.14 K, 9000 kPa, x1 = 0.0046 | 803.55
313.14 K, 10000 kPa, x1 = 0.0046 | 804.36
313.14 K, 11000 kPa, x1 = 0.0046 | 805.17
313.14 K, 12000 kPa, x1 = 0.0046 | 805.97
313.14 K, 13000 kPa, x1 = 0.0046 | 806.77
313.14 K, 14000 kPa, x1 = 0.0046 | 807.55
313.14 K, 15000 kPa, x1 = 0.0046 | 808.32
313.14 K, 16000 kPa, x1 = 0.0046 | 809.08
313.14 K, 17000 kPa, x1 = 0.0046 | 809.85
313.14 K, 18000 kPa, x1 = 0.0046 | 810.58
313.14 K, 19000 kPa, x1 = 0.0046 | 811.3
313.14 K, 20000 kPa, x1 = 0.0046 | 812.01
313.15 K, 1000 kPa, x1 = 0.0018 | 790.99
313.15 K, 1000 kPa, x1 = 0.0077 | 801.14
313.15 K, 1000 kPa, x1 = 0.0112 | 807.94
313.15 K, 2000 kPa, x1 = 0.0018 | 791.76
313.15 K, 2000 kPa, x1 = 0.0077 | 801.89
313.15 K, 2000 kPa, x1 = 0.0112 | 808.71
313.15 K, 3000 kPa, x1 = 0.0018 | 792.55
313.15 K, 3000 kPa, x1 = 0.0077 | 802.66
313.15 K, 3000 kPa, x1 = 0.0112 | 809.47
313.15 K, 4000 kPa, x1 = 0.0018 | 793.33
313.15 K, 4000 kPa, x1 = 0.0077 | 803.44
313.15 K, 4000 kPa, x1 = 0.0112 | 810.25
313.15 K, 5000 kPa, x1 = 0.0018 | 794.13
313.15 K, 5000 kPa, x1 = 0.0077 | 804.23
313.15 K, 5000 kPa, x1 = 0.0112 | 811.06
313.15 K, 6000 kPa, x1 = 0.0018 | 794.94
313.15 K, 6000 kPa, x1 = 0.0077 | 805.03
313.15 K, 6000 kPa, x1 = 0.0112 | 811.83
313.15 K, 7000 kPa, x1 = 0.0018 | 795.75
313.15 K, 7000 kPa, x1 = 0.0077 | 805.83
313.15 K, 7000 kPa, x1 = 0.0112 | 812.63
313.15 K, 8000 kPa, x1 = 0.0018 | 796.57
313.15 K, 8000 kPa, x1 = 0.0077 | 806.63
313.15 K, 8000 kPa, x1 = 0.0112 | 813.42
313.15 K, 9000 kPa, x1 = 0.0018 | 797.38
313.15 K, 9000 kPa, x1 = 0.0077 | 807.44
313.15 K, 9000 kPa, x1 = 0.0112 | 814.2
313.15 K, 10000 kPa, x1 = 0.0018 | 798.19
313.15 K, 10000 kPa, x1 = 0.0077 | 808.25
313.15 K, 10000 kPa, x1 = 0.0112 | 815
313.15 K, 11000 kPa, x1 = 0.0018 | 799.01
313.15 K, 11000 kPa, x1 = 0.0077 | 809.05
313.15 K, 11000 kPa, x1 = 0.0112 | 815.81
313.15 K, 12000 kPa, x1 = 0.0018 | 799.83
313.15 K, 12000 kPa, x1 = 0.0077 | 809.85
313.15 K, 12000 kPa, x1 = 0.0112 | 816.58
313.15 K, 13000 kPa, x1 = 0.0018 | 800.62
313.15 K, 13000 kPa, x1 = 0.0077 | 810.64
313.15 K, 13000 kPa, x1 = 0.0112 | 817.36
313.15 K, 14000 kPa, x1 = 0.0018 | 801.41
313.15 K, 14000 kPa, x1 = 0.0077 | 811.41
313.15 K, 14000 kPa, x1 = 0.0112 | 818.14
313.15 K, 15000 kPa, x1 = 0.0018 | 802.19
313.15 K, 15000 kPa, x1 = 0.0077 | 812.18
313.15 K, 15000 kPa, x1 = 0.0112 | 818.89
313.15 K, 16000 kPa, x1 = 0.0018 | 802.95
313.15 K, 16000 kPa, x1 = 0.0077 | 812.94
313.15 K, 16000 kPa, x1 = 0.0112 | 819.65
313.15 K, 17000 kPa, x1 = 0.0018 | 803.72
313.15 K, 17000 kPa, x1 = 0.0077 | 813.69
313.15 K, 17000 kPa, x1 = 0.0112 | 820.39
313.15 K, 18000 kPa, x1 = 0.0018 | 804.46
313.15 K, 18000 kPa, x1 = 0.0077 | 814.42
313.15 K, 18000 kPa, x1 = 0.0112 | 821.12
313.15 K, 19000 kPa, x1 = 0.0018 | 805.19
313.15 K, 19000 kPa, x1 = 0.0077 | 815.14
313.15 K, 19000 kPa, x1 = 0.0112 | 821.85
313.15 K, 20000 kPa, x1 = 0.0018 | 805.9
313.15 K, 20000 kPa, x1 = 0.0077 | 815.85
313.15 K, 20000 kPa, x1 = 0.0112 | 822.53
323.1 K, 1000 kPa, x1 = 0.0018 | 782.67
323.1 K, 2000 kPa, x1 = 0.0018 | 783.52
323.1 K, 3000 kPa, x1 = 0.0018 | 784.36
323.1 K, 4000 kPa, x1 = 0.0018 | 785.2
323.1 K, 5000 kPa, x1 = 0.0018 | 786.06
323.1 K, 6000 kPa, x1 = 0.0018 | 786.91
323.1 K, 7000 kPa, x1 = 0.0018 | 787.78
323.1 K, 8000 kPa, x1 = 0.0018 | 788.64
323.1 K, 9000 kPa, x1 = 0.0018 | 789.49
323.1 K, 10000 kPa, x1 = 0.0018 | 790.35
323.1 K, 11000 kPa, x1 = 0.0018 | 791.2
323.1 K, 12000 kPa, x1 = 0.0018 | 792.05
323.1 K, 13000 kPa, x1 = 0.0018 | 792.88
323.1 K, 14000 kPa, x1 = 0.0018 | 793.69
323.1 K, 15000 kPa, x1 = 0.0018 | 794.51
323.1 K, 16000 kPa, x1 = 0.0018 | 795.32
323.1 K, 17000 kPa, x1 = 0.0018 | 796.1
323.1 K, 18000 kPa, x1 = 0.0018 | 796.89
323.1 K, 19000 kPa, x1 = 0.0018 | 797.65
323.1 K, 20000 kPa, x1 = 0.0018 | 798.39
323.11 K, 1000 kPa, x1 = 0.0112 | 799.52
323.11 K, 1000 kPa, x1 = 0.0142 | 804.17
323.11 K, 2000 kPa, x1 = 0.0112 | 800.32
323.11 K, 2000 kPa, x1 = 0.0142 | 804.99
323.11 K, 3000 kPa, x1 = 0.0112 | 801.16
323.11 K, 3000 kPa, x1 = 0.0142 | 805.81
323.11 K, 4000 kPa, x1 = 0.0112 | 801.99
323.11 K, 4000 kPa, x1 = 0.0142 | 806.63
323.11 K, 5000 kPa, x1 = 0.0112 | 802.82
323.11 K, 5000 kPa, x1 = 0.0142 | 807.51
323.11 K, 6000 kPa, x1 = 0.0112 | 803.66
323.11 K, 6000 kPa, x1 = 0.0142 | 808.3
323.11 K, 7000 kPa, x1 = 0.0112 | 804.52
323.11 K, 7000 kPa, x1 = 0.0142 | 809.14
323.11 K, 8000 kPa, x1 = 0.0112 | 805.34
323.11 K, 8000 kPa, x1 = 0.0142 | 809.97
323.11 K, 9000 kPa, x1 = 0.0112 | 806.15
323.11 K, 9000 kPa, x1 = 0.0142 | 810.81
323.11 K, 10000 kPa, x1 = 0.0112 | 807.01
323.11 K, 10000 kPa, x1 = 0.0142 | 811.64
323.11 K, 11000 kPa, x1 = 0.0112 | 807.85
323.11 K, 11000 kPa, x1 = 0.0142 | 812.47
323.11 K, 12000 kPa, x1 = 0.0112 | 808.67
323.11 K, 12000 kPa, x1 = 0.0142 | 813.28
323.11 K, 13000 kPa, x1 = 0.0112 | 809.47
323.11 K, 13000 kPa, x1 = 0.0142 | 814.1
323.11 K, 14000 kPa, x1 = 0.0112 | 810.29
323.11 K, 14000 kPa, x1 = 0.0142 | 814.89
323.11 K, 15000 kPa, x1 = 0.0112 | 811.07
323.11 K, 15000 kPa, x1 = 0.0142 | 815.69
